The source made the active and inactive calls. No cut-off for these calls is given here.
Tests used:
B16-F10 [1] = experiment: Induction of cell cycle arrest in mouse B16-F10 cells assessed as accumulation of cells at G2 phase at 0.5 nM incubated for 12 hrs by flow cytometry (reference value: 13.6 %); format: functional
B16-F10 [2] = experiment: Induction of cell cycle arrest in mouse B16-F10 cells assessed as accumulation of cells at G2 phase at 1 nM incubated for 12 hrs by flow cytometry (reference value: 13.6 %); format: functional
B16-F10 [3] = experiment: Inhibition of cell migration in mouse B16-F10 cells assessed as migration rate at 4 nM incubated for 24 hrs by wound healing assay (reference value: 61.1 %); format: functional; design: scale not given: the % may be the effect or the level left
MCF7 = experiment: Inhibition of cell migration in human MCF7 cells assessed as migration rate at 2 nM incubated for 24 hrs by wound healing assay (reference value: 18.1 %); format: functional; design: scale not given: the % may be the effect or the level left
B16-F10 [4] = experiment: Induction of apoptosis in mouse B16-F10 cells assessed as decrease in Bcl-2 level upto 30 nM incubated for 24 hrs by Western blot analysis; format: functional, cell-based
B16-F10 [5] = experiment: Antitumor activity against mouse B16-F10 cells xenografted in C57 mouse at 3.5 mg/kg, ip qd for 12 days in presence of NP-19 relative to control; format: functional; conditions: B16-F10, 288 h, time 12 day, read-out: TGI
[6] = Toxicity in C57 mouse xenografted with mouse B16-F10 cells assessed as body weight change at 7 mg/kg, ip qd for 12 days; format: organism-based; conditions: in vivo, 288 h, time 12 day

Cc1nc(N(C)c2ccc3c(ccn3C)c2)c2sccc2n1 showed an Activity (B16-F10 [1]) of 58.9%, an Activity (B16-F10 [2]) of 61.9% and an Activity (B16-F10 [3]) of 5.23%. For the same compound, the Activity (MCF7) was 8.84%, the Activity (B16-F10 [4]) was “Active” and the inhibition in vivo at 3.5 mg/kg (B16-F10 [5]) was 75.7%. For the same compound, the Activity [6] was “Non-Toxic”.

Reference: ChEMBL document CHEMBL5614416, “Discovery of novel thiophene[3,2-d]pyrimidine-based tubulin inhibitors with enhanced antitumor efficacy for combined use with anti-pd-l1 immunotherapy in melanoma” (Eur J Med Chem, 2024)
